Assay results reported in PubChem BioAssay AID1963829 (Molecular Pharmacology Branch, DTP, NCI, 2024).

System: 935938-334-R-J1-PDC complex spheroid viability
Assay: Anticancer human tumor 935938-334-R-J1-PDC patient-derived small intestine adenocarcinoma cell line growth inhibition [POLQ]
Conditions: for IC50: curve of first compound; for viability, T/C: stronger effect = lower value
How it was run: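 Growth inhibition in 3D: complex spheroids (tumor PDC, HUVEC, MSC) treated with POLQ inhibitor combinations; where Cmax unknown, highest tested concentration 10 microM, except SN-38 at 1 microM.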

[1] = second compound 0.0316 µM, first compound 0.00316 µM
[2] = second compound 0.0316 µM, first compound 0.01 µM
[3] = second compound 0.0316 µM, first compound 0.0316 µM
[4] = second compound 0.0316 µM, first compound 0.1 µM
[5] = second compound 0.1 µM, first compound 0.00316 µM
[6] = second compound 0.1 µM, first compound 0.01 µM
[7] = second compound 0.1 µM, first compound 0.0316 µM
[8] = second compound 0.1 µM, first compound 0.1 µM
[9] = second compound 0.316 µM, first compound 0.00316 µM
[10] = second compound 0.316 µM, first compound 0.01 µM
[11] = second compound 0.316 µM, first compound 0.0316 µM
[12] = second compound 0.316 µM, first compound 0.1 µM
[13] = second compound 1 µM, first compound 0.00316 µM
[14] = second compound 1 µM, first compound 0.01 µM
[15] = second compound 1 µM, first compound 0.0316 µM
[16] = second compound 1 µM, first compound 0.1 µM
[17] = second compound 3.16 µM, first compound 0.00316 µM
[18] = second compound 3.16 µM, first compound 0.01 µM
[19] = second compound 3.16 µM, first compound 0.0316 µM
[20] = second compound 3.16 µM, first compound 0.1 µM
[21] = second compound 10 µM, first compound 0.00316 µM
[22] = second compound 10 µM, first compound 0.01 µM
[23] = second compound 10 µM, first compound 0.0316 µM
[24] = second compound 10 µM, first compound 0.1 µM
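Further: spheroids exposed to drugs for seven days before viability read.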
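Wherever viability, T/C is given: 100% = DMSO vehicle control wells.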

COc1cccc(OCCCN)c1-c1cc(Nc2cnc(C#N)cn2)n[nH]1 + Cc1cccc(N(C)C(=O)C2C(O)CCN2c2nc(C)cc(C(F)(F)F)c2C#N)c1
IC50 (second compound 0.0316 µM): 0.0559 µM | IC50 (second compound 0.1 µM): 0.0509 µM | IC50 (second compound 0.316 µM): 0.0409 µM | IC50 (second compound 1 µM): 0.0437 µM | IC50 (second compound 3.16 µM): 0.04 µM | IC50 (second compound 10 µM): 0.0385 µM | viability, T/C [1]: 118% | viability, T/C [2]: 94.9% | viability, T/C [3]: 65.2% | viability, T/C [4]: 36.8% | viability, T/C (second compound 0.0316 µM, first compound 0.316 µM): 12.2% | viability, T/C (second compound 0.0316 µM, first compound 1 µM): 8.59% | viability, T/C [5]: 101% | viability, T/C [6]: 75.2% | viability, T/C [7]: 69.6% | viability, T/C [8]: 31% | viability, T/C (second compound 0.1 µM, first compound 0.316 µM): 9.36% | viability, T/C (second compound 0.1 µM, first compound 1 µM): 10.3% | viability, T/C [9]: 96% | viability, T/C [10]: 95.2% | viability, T/C [11]: 48.1% | viability, T/C [12]: 35.3% | viability, T/C (second compound 0.316 µM, first compound 0.316 µM): 10.1% | viability, T/C (second compound 0.316 µM, first compound 1 µM): 10.6% | viability, T/C [13]: 106% | viability, T/C [14]: 86% | viability, T/C [15]: 60.7% | viability, T/C [16]: 28.5% | viability, T/C (second compound 1 µM, first compound 0.316 µM): 9.11% | viability, T/C (second compound 1 µM, first compound 1 µM): 9.21% | viability, T/C [17]: 138% | viability, T/C [18]: 90.6% | viability, T/C [19]: 69.5% | viability, T/C [20]: 15.7% | viability, T/C (second compound 3.16 µM, first compound 0.316 µM): 8.96% | viability, T/C (second compound 3.16 µM, first compound 1 µM): 11.1% | viability, T/C [21]: 96.5% | viability, T/C [22]: 94.8% | viability, T/C [23]: 57.9% | viability, T/C [24]: 11.6% | viability, T/C (second compound 10 µM, first compound 0.316 µM): 11.9% | viability, T/C (second compound 10 µM, first compound 1 µM): 9.17%

Cn1ncnc1[C@H]1c2n[nH]c(=O)c3cc(F)cc(c23)N[C@@H]1c1ccc(F)cc1 + Cc1cccc(N(C)C(=O)C2C(O)CCN2c2nc(C)cc(C(F)(F)F)c2C#N)c1
IC50 (second compound 0.0316 µM): > 0.1 µM | IC50 (second compound 0.1 µM): > 0.1 µM | IC50 (second compound 0.316 µM): > 0.1 µM | IC50 (second compound 1 µM): > 0.1 µM | IC50 (second compound 3.16 µM): > 0.1 µM | IC50 (second compound 10 µM): > 0.1 µM | viability, T/C (second compound 0.0316 µM, first compound 0.000316 µM): 143% | viability, T/C (second compound 0.0316 µM, first compound 0.001 µM): 88.6% | viability, T/C [1]: 102% | viability, T/C [2]: 94.5% | viability, T/C [3]: 97.8% | viability, T/C [4]: 102% | viability, T/C (second compound 0.1 µM, first compound 0.000316 µM): 85.5% | viability, T/C (second compound 0.1 µM, first compound 0.001 µM): 91.3% | viability, T/C [5]: 107% | viability, T/C [6]: 143% | viability, T/C [7]: 111% | viability, T/C [8]: 70% | viability, T/C (second compound 0.316 µM, first compound 0.000316 µM): 108% | viability, T/C (second compound 0.316 µM, first compound 0.001 µM): 107% | viability, T/C [9]: 80.5% | viability, T/C [10]: 108% | viability, T/C [11]: 91% | viability, T/C [12]: 83.4% | viability, T/C (second compound 1 µM, first compound 0.000316 µM): 89.8% | viability, T/C (second compound 1 µM, first compound 0.001 µM): 99.6% | viability, T/C [13]: 97.7% | viability, T/C [14]: 82.1% | viability, T/C [15]: 114% | viability, T/C [16]: 60.4% | viability, T/C (second compound 3.16 µM, first compound 0.000316 µM): 125% | viability, T/C (second compound 3.16 µM, first compound 0.001 µM): 80.8% | viability, T/C [17]: 105% | viability, T/C [18]: 88.5% | viability, T/C [19]: 89.9% | viability, T/C [20]: 89.6% | viability, T/C (second compound 10 µM, first compound 0.000316 µM): 103% | viability, T/C (second compound 10 µM, first compound 0.001 µM): 87.5% | viability, T/C [21]: 77.6% | viability, T/C [22]: 118% | viability, T/C [23]: 87.9% | viability, T/C [24]: 89%
